Measured values reported in patent publication US5843925A, “Methods for inhibiting angiogenesis, proliferation of endothelial or tumor cells and tumor growth” (American Cyanamid Company, priority 1994, dated 1998).
Where a name gives a salt, the structure may show the parent alone.

How the values were obtained:
Format in all cases: cell-based
[1] = test system: Human Tumor cell lines; test: Antiproliferative activity in panel of human tumor cell lines (PROTOCOL 1 and PROTOCOL 2); settings: Homo sapiens; average over the tumor cell lines of Table 3
Procedure: The antiproliferative activity of the compounds of Formula I in an Adult Bovine Aortic Endothelial (ABAE) cell line and in Human Tumor cells lines is evaluated in three similar assays that measure growth inhibition. The assays are identified as follows:
(§1) PROTOCOLS 1, 2, and 3 are described in greater detail hereinbelow. In general, according to PROTOCOLS 1 and 2, the target ABAE and/or Human Tumor cells are exposed to the compound of Formula I for 48 hours. PROTOCOL 3 exposes ABAE cells to the compounds for 4 days. A detailed description of the protocol is as follows:
(§2) The antiproliferative activity of the compounds of Formula I of the present invention is evaluated in a panel comprised of human tumor cell lines and an adult bovine aortic endothelial cell line (ABAE). The human tumor cell lines are from
(§3) All cell lines are maintained in log phase in RPMI 1640 media, supplemented with 5% fetal calf serum, penicillin/streptomycin and 2 mM L-glutamine. Cultures are renewed after 20 passages with cells from a fresh stock of batch-frozen early passage cells. Cell lines are routinely checked for mycoplasma contamination (Genprobe). In a laminar flow hood, cells (1-5×10^4) are plated into 96-well microtiter plates in a volume of 0.1 ml/well with a bulk microtiter dispenser (Denley). […] At this concentration, dimethylsulfoxide has no effect on cell growth. Compounds are added using a Tomtec dispenser which simultaneously dispenses from one 96-well plate, containing the drug dilutions, to the plates containing the cells. After two days of continuous drug exposure, 50% cold trichloroacetic acid (TCA) is added to 10% final concentration to fix the cells, and after 60 minutes at 4° C., the TCA is aspirated and the plates are washed 5 times with deionized water using a microtiter plate washer. The number of cells on the plate are quantitated using a protein dye-binding assay (Monks et al., 1991). A 0.4% solution of the dye, sulforhodamine B, in glacial acetic acid is added to the plates, and the plates are washed 5 times with 1% glacial acetic acid using the automatic plate washed. The bound stain is solubilized with 0.1 ml of 10 mM Tris base. The optical densities are read from an automatic spectrophotometric plate reader (Dynatech) directly to a main frame computer (VAX 8600).
(§4) Positive controls, that include standard chemotherapeutic drugs (i.e., adriamycin, cisplatin, etc.), are included in every experiment.
(§5) Background optical density measurements (complete media-cells, and complete media+drug-cells) are automatically subtracted from the appropriate control and test wells. Mean values and standard errors are determined from duplicate wells. A measure is also made of the optical density at time when the drugs are added. The number of cells after treatment (P), as % of control, is calculated for every concentration of drug, as follows: [formula] wherein: T is optical density measurement for treated cells after 48 hours;
(§6) C is optical density measurement for untreated cells after 48 hours;
(§7) Co is optical density measurement for cells at the time of drug addition.
(§8) IC50 of growth inhibition is calculated from the sets of P values using the RS-1 data package (BBN Software).
(§9) Antiproliferative Activity in Human Tumor Cell Lines
(§10) The antiproliferative activity of the compounds of Formula I is evaluated in the panel comprised of human tumor cell lines as listed in PROTOCOL 1. This assay is a slight modification of PROTOCOL 1. The modifications include:
(§11) 1) each concentration for each compound is tested in a single well;
(§12) 2) compounds are tested at 20, 4, 0.8, 0.16 microgram/ml and additionally in some experiments at 100 and 0.32 microgram/ml;
(§13) 3) samples are pipetted into a 96-well plate for each of the cell lines by a Beckman Biomek 1000 SL robot;
(§14) 4) after fixing with TCA each well is washed with 0.35 ml distilled water twice, not five times;
5) after staining with sulforhodamine B each well is washed 3 times, not five times; […]

[2] = test system: HTB 161; test: Antiproliferative activity in human tumor cell lines (HTB 161)
Procedure: as §1, §2
(§15) Cultures are renewed after 20 passages with cells from a fresh stock of batch-frozen early passage cells. Cell lines are routinely checked for mycoplasma contamination (Genprobe). In a laminar flow hood, cells (1-5×10^4) are plated into 96-well microtiter plates in a volume of 0.1 ml/well with a bulk microtiter dispenser (Denley). […] Compounds are added using a Tomtec dispenser which simultaneously dispenses from one 96-well plate, containing the drug dilutions, to the plates containing the cells. After two days of continuous drug exposure, 50% cold trichloroacetic acid (TCA) is added to 10% final concentration to fix the cells, and after 60 minutes at 4° C., the TCA is aspirated and the plates are washed 5 times with deionized water using a microtiter plate washer. […] A 0.4% solution of the dye, sulforhodamine B, in […] is added to the plates, and the plates are washed 5 times with 1% glacial acetic acid using the automatic plate washed. The bound stain is solubilized with 0.1 ml of 10 mM Tris base. The optical densities are read from an automatic spectrophotometric plate reader (Dynatech) directly to a main frame computer (VAX 8600).
as §4, §5, §6, §7, §8, §9, §10, §11, §12, §13, §14
(§16) 5) after staining with sulforhodamine B each well is washed 3 times, not five times;
(§17) 6) the growth inhibition (I) as % of control, is calculated using the RS-1 data package (BBN Software), for every concentration of drug, as follows: [formula] wherein: T is optical density measurement for treated cells after 48 hours;
(§18) 7) IC50 of growth inhibition is determined graphically from dose response curves, as is known in the art.

[3] = test system: MIP; test: Antiproliferative activity in human tumor cell lines (MIP); settings: MIP colon tumor cell line
Procedure: as §1, §2, §3, §4, §5, §6, §7, §8, §9, §10, §11, §12, §13, §14, §16
6) the growth inhibition (I) as % of control, is calculated using the RS-1 data package (BBN Software), for every concentration of drug, as follows: [formula] wherein: T is optical density measurement for treated cells after 48 hours; […]

[4] = test system: A2780S; test: Antiproliferative activity in human tumor cell lines (A2780S); settings: A2780S ovarian tumor cell line
Procedure: as §1, §2, §15, §4, §5, §6, §7, §8, §9, §10, §11, §12, §13, §14, §16, §17, §18

Compound | IC50 [1] [µg/mL] | IC50 [2] [µg/mL] | IC50 [3] [µg/mL] | IC50 [4] [µg/mL]
CCCCCCNCC(=O)Nc1cc(N(C)C)c2c(c1O)C(=O)C1=C(O)[C@]3(O)C(=O)C(C(N)=O)=C(O)[C@@H](N(C)C)C3CC1C2 (stereo partly drawn) [Example 4, [4S-(4α,12aα)]-4,7-Bis(dimethylamino)-9-[(hexylamino)acetyl]amino]-1,4,4a,5,5a,6,11,12a-octahydro-3,10,12,12a-tetrahydroxy-1,11-dioxo-2-naphthacenecarboxamide dihydrochloride] | 2.3 | 2 | 2.8 | 2.3
CCCCCCCNCC(=O)Nc1cc(N(C)C)c2c(c1O)C(=O)C1=C(O)[C@]3(O)C(=O)C(C(N)=O)=C(O)[C@@H](N(C)C)C3CC1C2 (stereo partly drawn) [Example 5, [4S-(4α,12aα)]-4,7-Bis(dimethylamino)-9-[[(heptylamino)acetyl]amino]-1,4,4a,5,5a,6,11,12a-octahydro-3,10,12,12a-tetrahydroxy-1,11-dioxo-2-naphthacenecarboxamide dihydrochloride] | 2.4 | 2.3 | 3.2 | 2.5
CN(C)CC(=O)Nc1cc(N(C)C)c2c(c1O)C(=O)C1=C(O)[C@]3(O)C(=O)C(C(N)=O)=C(O)[C@@H](N(C)C)C3CC1C2 (stereo partly drawn) [Example 2, [4S-(4a,12aa-1-4,7-Bis(dimethylamino)-9-[[(dimethylamino)acetyl]amino]]-1,4,,4a,5,5a,6,11,12a-octahvdro-3,10,12,12a-tetrahydroxy-1,11-dioxo-2-napththacenecarboxamidedihydrochloride] | 5.8 | 6 | 4.6 | 6.5
